From ChEMBL document CHEMBL3244391, “Antiviral activity of aliphatic nucleoside analogues: structure-function relationship” (1979)

Test system: Vaccinia virus
Experiment: Antiviral activity against Vaccinia virus infected in rabbit primary kidney cells assessed as inhibition of viral cytopathogenicity after 3 days
Type: functional, Orthopoxvirus vaccinia

Compound	MID
Nc1ncnc2c1ncn2C[C@@H](O)CO	>400 µg/mL
OC[C@@H](O)Cn1cnc2c(O)ncnc21	>400 µg/mL
O=c1ccn(C[C@H](O)CO)c(=O)[nH]1	>400 µg/mL
Cc1cn(C[C@H](O)CO)c(=O)[nH]c1=O	>400 µg/mL
Cc1cn(C[C@@H](O)CO)c(=O)[nH]c1=O	>400 µg/mL
Cc1c[nH]c(=O)n(C[C@H](O)CO)c1=O	>400 µg/mL
NCCn1cnc2c(N)ncnc21	>400 µg/mL
CC(=O)OC[C@H](Cn1cnc2c(N)ncnc21)OC(C)=O	>400 µg/mL
Nc1ncnc2c1ncn2CC[C@H](O)CO	200 µg/mL
Nc1ncnc2c1ncn2C[C@@H](O)[C@@H](O)CO	>400 µg/mL
Nc1ncnc2c1ncn2C[C@H](O)[C@H](O)CO	200 µg/mL
Nc1ncnc2c1ncn2C[C@@H](O)[C@H](O)CO	>400 µg/mL
Nc1ncnc2c1ncn2C[C@H](O)[C@@H](O)CO	>400 µg/mL
O=c1ccn(CC[C@H](O)CO)c(=O)[nH]1	>400 µg/mL
O=c1ccn(C[C@@H](O)[C@H](O)CO)c(=O)[nH]1	>400 µg/mL
Nc1ncnc2c1ncn2C(CO)CO	>400 µg/mL
Nc1ncnc2c1ncn2CCCO	300 µg/mL
Nc1ncnc2c1ncn2CCO	>400 µg/mL
Nc1ncnc2c1ncn2CC(O)CO (racemic)	40 µg/mL

Compound	MID
Nc1nc(O)c2c(ncn2CC(O)CO)n1 (racemic)	>400 µg/mL
Nc1ncnc2c1ncn2CCC(O)CO (racemic)	100 µg/mL
Nc1ncnc2c1ncn2CCC(O)CCO (racemic)	>400 µg/mL
Nc1nc(N)c2ncn(CC(O)CO)c2n1 (racemic)	>400 µg/mL
CSc1nc(N)c2ncn(CC(O)CO)c2n1 (racemic)	400 µg/mL
Nc1ncnc2c1nc(O)n2CC(O)CO (racemic)	>400 µg/mL
Nc1ncnc2c1nc(S)n2CC(O)CO (racemic)	>400 µg/mL
CNc1ncnc2c1ncn2CC(O)CO (racemic)	>400 µg/mL
CN(C)c1ncnc2c1ncn2CC(O)CO (racemic)	>400 µg/mL
OCC(O)Cn1cnc2c(S)ncnc21 (racemic)	>400 µg/mL
Nc1nc2c(ncn2CC(O)CO)c(=O)[nH]1 (racemic)	>400 µg/mL
Nc1c2ncn(CC(O)CO)c2nc[n+]1[O-] (racemic)	>400 µg/mL
Nc1ccn(CC(O)CO)c(=O)n1 (racemic)	>400 µg/mL
O=c1cnn(CC(O)CO)c(=O)[nH]1 (racemic)	>400 µg/mL
CCC(=O)OCC(Cn1cnc2c(N)ncnc21)OC(=O)CC (racemic)	>400 µg/mL
CCCCCCCCCCCCCCCC(=O)OCC(O)Cn1cnc2c(N)ncnc21 (racemic)	100 µg/mL
CC(C)(C)C(=O)OCC(O)Cn1cnc2c(N)ncnc21 (racemic)	300 µg/mL
CC(C)(C)C(=O)OCC(Cn1cnc2c(N)ncnc21)OC(=O)C(C)(C)C (racemic)	300 µg/mL
COC(CO)Cn1cnc2c(N)ncnc21 (racemic)	>400 µg/mL

Compound	MID
COCC(O)Cn1cnc2c(N)ncnc21 (racemic)	>400 µg/mL
COCC(Cn1cnc2c(N)ncnc21)OC (racemic)	>400 µg/mL
[N-]=[N+]=NCC(O)Cn1cnc2c(N)ncnc21 (racemic)	>400 µg/mL
[N-]=[N+]=NCC(Cn1cnc2c(N)ncnc21)N=[N+]=[N-] (racemic)	150 µg/mL
Nc1ncnc2c1ncn2CC(N)CO (racemic)	>400 µg/mL
NCC(O)Cn1cnc2c(N)ncnc21 (racemic)	400 µg/mL
NCC(N)Cn1cnc2c(N)ncnc21 (racemic)	>400 µg/mL
Nc1ncnc2c1ncn2CC(O)C(O)CO (racemic)	400 µg/mL
O=c1ccn(CC(O)C(O)CO)c(=O)[nH]1 (racemic)	>400 µg/mL
O=c1ccn(C[C@H](O)[C@H](O)CO)c(=O)[nH]1 (racemic)	>400 µg/mL
O=c1ccn(CCC(O)CCO)c(=O)[nH]1 (racemic)	>400 µg/mL
C[C@@H](O)[C@@H](O)Cn1cnc2c(N)ncnc21 (racemic)	150 µg/mL
CC(O)Cn1cnc2c(N)ncnc21 (racemic)	>400 µg/mL
Nc1ncnc2c1nc(Br)n2CC(O)CO (racemic)	>200 µg/mL
Nc1ncnc2c1ncn2C[C@H](O)CO [(S)-DHPA]	10 µg/mL
Nc1ccn([C@@H]2O[C@H](CO)[C@@H](O)[C@@H]2O)c(=O)n1 [CYTARABINE]	0.02 µg/mL
O=c1[nH]c(=O)n([C@H]2C[C@H](O)[C@@H](CO)O2)cc1I [IDOXURIDINE]	0.1 µg/mL
Nc1ncnc2c1ncn2[C@@H]1O[C@H](CO)[C@@H](O)[C@@H]1O [VIDARABINE]	0.3 µg/mL
